Like-named read-outs stand apart in the source and are kept apart here.
Tests used:
Format in all cases: in vivo
[1] = tested on: Yellow Fever Mosquito (Aedes aegypti, AEDSAE); assay: Bioassay on Yellow Fever Mosquito (YFM), 96-well plate larval assay
Procedure: Certain molecules disclosed in this document were tested against YFM using procedures described in the following paragraph. In the reporting of the results, the “GPA & YFM Rating Table” was used (See Table Section).
Master plates containing 400 μg of a molecule dissolved in 100 μL of dimethyl sulfoxide (DMSO) (equivalent to a 4000 ppm solution) are used. A master plate of assembled molecules contains 15 μL per well. To this plate, 135 μL of a 90:10 water/acetone mixture is added to each well. A robot is programmed to dispense 15 μL aspirations from the master plate into an empty 96-well shallow plate (“daughter” plate). There are 6 reps (“daughter” plates) created per master. The created “daughter” plates are then immediately infested with YFM larvae.
The day before plates are to be treated, mosquito eggs are placed in Millipore water containing liver powder to begin hatching (4 g. into 400 mL). After the “daughter” plates are created using the robot, they are infested with 220 μL of the liver powder/larval mosquito mixture (about 1 day-old larvae). After plates are infested with mosquito larvae, a non-evaporative lid is used to cover the plate to reduce drying. Plates are held at room temperature for 3 days prior to grading. After 3 days, each well is observed and scored based on mortality. The results are indicated in the table entitled “Table ABC: Biological Results” (See Table Section).

[2] = tested on: Cabbage Looper (Trichoplusia ni, TRIPNI); assay: Bioassay on Cabbage Looper (CL), 128-well diet tray assay; conditions: Trichoplusia ni
How it was run: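 Second-instar larvae, one to five per well, were placed on artificial diet surface-treated with 50 μg/cm^2 test molecule applied in 90:10 acetone-water and dried, eight wells per molecule. Trays were covered, vented and held at 25° C., 14:10 light-dark for five to seven days; percent mortality per well was averaged.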

[3] = tested on: Beet Armyworm (Spodoptera exigua, LAPHEG); assay: Bioassay on Beet Armyworm (BAW), 128-well diet tray assay
How it was run: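 Diet tray, 8 wells/compound; 50 μg/cm^2 applied to diet surface (90:10 acetone-water), dried. 1–5 L2 larvae/well; 25° C., 14:10 L:D, 5–7 d. Read-out: % mortality, mean of 8 wells.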

[4] = Species CL (Cabbage Looper), read-out: CL (Biological Results, rating)
[5] = Species BAW (Beet Armyworm), read-out: BAW (Biological Results, rating)
[6] = Cabbage Looper, 128-well diet tray assay, read-out: CL rating
[7] = Beet Armyworm, 128-well diet tray assay, read-out: BAW rating

SMILES | pest or weed control at 50 µg/cm2 [2, 4] | pest or weed control at 50 µg/cm2 [3, 5] | pest or weed control at 50 µg/cm2 [2, 6] | pest or weed control at 50 µg/cm2 [3, 7] | also measured
O=C(Nc1cc(F)cc([N+](=O)[O-])c1)c1cc(NC(=O)[C@H]2[C@H](c3cc(Cl)cc(Cl)c3)C2(Cl)Cl)ccc1Cl [F415, 2-Chloro-5-((1R,3R)-2,2-dichloro-3-(3,5-dichlorophenyl)cyclopropane-1-carboxamido)-N-(3-fluoro-5-nitrophenyl)benzamide] | – | – | – | – | YFM rating ([1]; Yellow Fever Mosquito, 96-well plate larval assay): A (80-100)
O=C(Nc1ccccc1)c1cc(NC(=O)[C@H]2[C@H](c3cc(Cl)cc(Cl)c3)C2(Cl)Cl)c(Cl)cc1Cl (relative stereo) [F254, trans-2,4-Dichloro-5-(2,2-dichloro-3-(3,5-dichlorophenyl)cyclopropane-1-carboxamido)-N-phenylbenzamide] | – | – | – | – | YFM (Biological Results, rating) ([1]; Species YFM (Yellow Fever Mosquito)): A (80-100)
O=C(Nc1ccc(F)cc1)c1cc(NC(=O)[C@H]2[C@H](c3ccccc3)C2(Cl)Cl)ccc1Cl (relative stereo) [F109, trans-2-Chloro-5-(2,2-dichloro-3-phenylcyclopropane-1-carboxamido)-N-(4-fluorophenyl)benzamide] | 50 to 100% | 50 to 100% | – | – | –
O=C(Nc1ccc(F)cc1)c1cc(NC(=O)[C@H]2[C@H](c3cc(Cl)cc(Cl)c3)C2(Cl)Cl)c(F)cc1Cl (relative stereo) [F48, trans-2-Chloro-5-(2,2-dichloro-3-(3,5-dichlorophenyl)cyclopropane-1-carboxamido)-4-fluoro-N-(4-fluorophenyl)benzamide] | 50 to 100% | 50 to 100% | – | – | –
O=C(Nc1nc2cc(Cl)ccc2o1)c1cc(NC(=O)C2C(c3cc(Cl)cc(Cl)c3)C2(Cl)Cl)ccc1Cl (stereo not drawn) [F448, 2-Chloro-N-(5-chlorobenzo[d]oxazol-2-yl)-5-(trans)-2,2-dichloro-3-(3,5-dichlorophenyl)cyclopropane-1-carboxamido)benzamide] | – | – | 50 to 100% | 50 to 100% | –
CC(=O)N(C)c1ccc(NC(=O)c2cc(NC(=O)[C@H]3[C@H](c4cc(Cl)cc(Cl)c4)C3(Cl)Cl)ccc2Cl)cc1 (relative stereo) [PF14, trans-2-Chloro-5-(2,2-dichloro-3-(3,5-dichlorophenyl)cyclopropane-1-carboxamido)-N-(4-(N-methylacetamido)phenyl)benzamide] | – | – | 50 to 100% | 50 to 100% | –
Cc1ccc(-c2csc(NC(=O)c3cc(NC(=O)[C@H]4[C@H](c5cc(Cl)cc(Cl)c5)C4(Cl)Cl)ccc3Cl)n2)cc1 (relative stereo) [PF136, trans-2-Chloro-5-(2,2-dichloro-3-(3,5-dichlorophenyl)cyclopropane-1-carboxamido)-N-(4-(p-tolyl)thiazol-2-yl)benzamide] | – | – | 50 to 100% | 50 to 100% | –
CN(C(=O)c1cc(NC(=O)[C@H]2[C@H](c3cc(Cl)c(Cl)c(Cl)c3)C2(Cl)Cl)ccc1F)c1ccc(F)cc1 (relative stereo) [F60, trans-5-(2,2-dichloro-3-(3,4,5-trichlorophenyl)cyclopropane-1-carboxamido)-2-fluoro-N-(4-fluorophenyl)-N-methylbenzamide] | 50 to 100% | 50 to 100% | – | – | –
Cc1cc(NC(=O)OC(C)(C)C)ccc1NC(=O)c1cc(NC(=O)[C@H]2[C@H](c3cc(Cl)c(Cl)c(Cl)c3)C2(Cl)Cl)ccc1Cl [F278, tert-Butyl (4-(2-chloro-5-((1R,3R)-2,2-dichloro-3-(3,4,5-trichlorophenyl)cyclopropane-1-carboxamido)benzamido)-3-methylphenyl)carbamate] | 50 to 100% | 50 to 100% | – | – | –
O=C(Nc1ccc(F)cc1)c1cc(NC(=O)[C@H]2[C@H](c3cc(C(F)(F)F)cc(C(F)(F)F)c3)C2(Cl)Cl)ccc1Cl (relative stereo) [F84, trans-5-(3-(3,5-Bis(trifluoromethyl)phenyl)-2,2-dichlorocyclopropane-1-carboxamido)-2-chloro-N-(4-fluorophenyl)benzamide] | 50 to 100% | 50 to 100% | – | – | –
CN(C(=O)c1cc(NC(=O)[C@H]2[C@H](c3ccccc3)C2(Cl)Cl)ccc1Cl)c1ccc(F)cc1 (relative stereo) [F110, trans-2-Chloro-5-(2,2-dichloro-3-phenylcyclopropane-1-carboxamido)-N-(4-fluorophenyl)-N-methylbenzamide] | 50 to 100% | 50 to 100% | – | – | –
Nc1c(F)ccc(NC(=O)c2cc(NC(=O)C3C(c4ccc(F)c(C(F)(F)F)c4)C3(Cl)Cl)ccc2Cl)c1F (stereo not drawn) [F624, N-(3-Amino-2,4-difluorophenyl)-2-chloro-5-(2,2-dichloro-3-trans-(4-fluoro-3-(trifluoromethyl)phenyl)cyclopropane-1-carboxamido)benzamide] | – | – | 50 to 100% | 50 to 100% | –
O=C(Nc1cc[n+]([O-])cc1)c1cc(NC(=O)[C@H]2[C@H](c3cc(Cl)cc(Cl)c3)C2(Cl)Cl)ccc1Cl (relative stereo) [F140, trans-4-(2-Chloro-5-(2,2-dichloro-3-(3,5-dichlorophenyl)cyclopropane-1-carboxamido)benzamido)pyridine 1-oxide] | 50 to 100% | 50 to 100% | – | – | –
O=C(Nc1ccc(F)cc1)c1cc(NC(=O)[C@H]2[C@H](c3cc(Cl)c(Br)c(Cl)c3)C2(Cl)Cl)ccc1Cl (relative stereo) [F72, trans-5-(3-(4-Bromo-3,5-dichlorophenyl)-2,2-dichlorocyclopropane-1-carboxamido)-2-chloro-N-(4-fluorophenyl)benzamide] | 50 to 100% | 50 to 100% | – | – | –
Cc1cc(N(C)C(=O)OC(C)(C)C)ccc1NC(=O)c1cc(NC(=O)[C@H]2[C@H](c3cc(Cl)c(Cl)c(Cl)c3)C2(Cl)Cl)ccc1Cl (relative stereo) [F218, trans-tert-Butyl-(4-(2-chloro-5-(2,2-dichloro-3-(3,4,5-trichlorophenyl)cyclopropane-1-carboxamido)benzamido)-3-methylphenyl)(methyl)carbamate] | 50 to 100% | 50 to 100% | – | – | –
O=C(Nc1ccc([N+](=O)[O-])cc1)c1cc(NC(=O)[C@H]2[C@H](c3cc(Cl)cc(Cl)c3)C2(Cl)Cl)ccc1Cl (relative stereo) [F137, trans-2-chloro-5-(2,2-dichloro-3-(3,5-dichlorophenyl)cyclopropane-1-carboxamido)-N-(4-nitrophenyl)benzamide] | 50 to 100% | 50 to 100% | – | – | –
O=C(Nc1cc(F)cc([N+](=O)[O-])c1)c1cc(NC(=O)[C@H]2[C@H](c3ccc(Cl)c(Cl)c3)C2(Cl)Cl)ccc1Cl [F416, 2-Chloro-5-((1R,3R)-2,2-dichloro-3-(3,4-dichlorophenyl)cyclopropane-1-carboxamido)-N-(3-fluoro-5-nitrophenyl)benzamide] | – | – | 50 to 100% | 50 to 100% | –
O=C(Nc1c(F)cccc1F)c1cc(NC(=O)[C@H]2[C@H](c3cc(Cl)cc(C(F)(F)F)c3)C2(Cl)Cl)ccc1Cl (relative stereo) [F89, trans-2-Chloro-5-(2,2-dichloro-3-(3-chloro-5-(trifluoromethyl)phenyl)cyclopropane-1-carboxamido)-N-(2,6-difluorophenyl)benzamide] | 50 to 100% | 50 to 100% | – | – | –
Cc1c(F)ccc(NC(=O)c2cc(NC(=O)[C@H]3[C@H](c4cc(Cl)cc(Cl)c4)C3(Cl)Cl)ccc2Cl)c1F (relative stereo) [PF55, trans-2-Chloro-5-(2,2-dichloro-3-(3,5-dichlorophenyl)cyclopropane-1-carboxamido)-N-(2,4-difluoro-3-methylphenyl)benzamide] | – | – | 50 to 100% | 50 to 100% | –
O=C(Nc1ncc(F)cc1F)c1cc(NC(=O)[C@H]2[C@H](c3cc(Cl)cc(C(F)F)c3)C2(Cl)Cl)ccc1Cl (relative stereo) [F584, 2-Chloro-5-(trans-2,2-dichloro-3-(3-chloro-5-(difluoromethyl)phenyl)cyclopropane-1-carboxamido)-N-(3,5-difluoropyridin-2-yl)benzamide] | – | – | 50 to 100% | 50 to 100% | –
O=C(Nc1ccc(F)cc1)c1cc(NC(=O)[C@H]2[C@H](c3cc(Cl)cc(Cl)c3)C2(Cl)Cl)cc[n+]1[O-] (relative stereo) [F141, trans-4-(2,2-Dichloro-3-(3,5-dichlorophenyl)cyclopropane-1-carboxamido)-2-((4-fluorophenyl)carbamoyl)pyridine 1-oxide] | 50 to 100% | 50 to 100% | – | – | –

Reference: patent publication US10219516B2, “Molecules having pesticidal utility, and intermediates, compositions, and processes, related thereto” (priority 2015, dated 2019)
